Data on ten compounds can be found in ChEMBL document CHEMBL3991601, “The target landscape of clinical kinase drugs” (Science, 2017).

SMILES strings stand for the structures. The source made the active and inactive calls. Cut-off read from the data, not from the text of the source, for most assays here: actives have a measured Kd and inactives only a lower limit. Where only a bound is given, the exact number is not on record here.

The target of one assay is Activated CDC42 kinase 1 (Homo sapiens, UniProt Q07912).
In assay [1] the target is T1, Mitogen-activated protein kinase kinase kinase 2 (Homo sapiens, UniProt Q9Y2U5).
T1 sequence (Q9Y2U5 whole entry): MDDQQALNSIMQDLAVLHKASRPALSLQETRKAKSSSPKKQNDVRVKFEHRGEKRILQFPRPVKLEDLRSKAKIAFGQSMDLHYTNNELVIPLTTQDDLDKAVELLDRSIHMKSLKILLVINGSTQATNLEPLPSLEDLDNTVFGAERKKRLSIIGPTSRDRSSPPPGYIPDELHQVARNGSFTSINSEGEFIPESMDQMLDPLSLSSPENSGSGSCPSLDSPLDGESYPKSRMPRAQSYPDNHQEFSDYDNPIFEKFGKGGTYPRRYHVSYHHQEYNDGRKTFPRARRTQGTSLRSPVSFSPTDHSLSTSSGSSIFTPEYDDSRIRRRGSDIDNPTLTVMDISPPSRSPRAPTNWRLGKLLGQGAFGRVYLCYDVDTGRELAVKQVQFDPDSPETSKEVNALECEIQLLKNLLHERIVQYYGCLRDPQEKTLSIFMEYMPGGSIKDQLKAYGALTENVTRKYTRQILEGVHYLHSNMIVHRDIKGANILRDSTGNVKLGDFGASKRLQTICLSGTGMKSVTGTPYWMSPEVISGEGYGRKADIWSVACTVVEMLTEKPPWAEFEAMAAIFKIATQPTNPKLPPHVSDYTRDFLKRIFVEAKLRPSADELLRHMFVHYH

Assay [2] deals with T2, Dual specificity mitogen-activated protein kinase kinase 3 (Homo sapiens, UniProt P46734).
T2 sequence (P46734 whole entry): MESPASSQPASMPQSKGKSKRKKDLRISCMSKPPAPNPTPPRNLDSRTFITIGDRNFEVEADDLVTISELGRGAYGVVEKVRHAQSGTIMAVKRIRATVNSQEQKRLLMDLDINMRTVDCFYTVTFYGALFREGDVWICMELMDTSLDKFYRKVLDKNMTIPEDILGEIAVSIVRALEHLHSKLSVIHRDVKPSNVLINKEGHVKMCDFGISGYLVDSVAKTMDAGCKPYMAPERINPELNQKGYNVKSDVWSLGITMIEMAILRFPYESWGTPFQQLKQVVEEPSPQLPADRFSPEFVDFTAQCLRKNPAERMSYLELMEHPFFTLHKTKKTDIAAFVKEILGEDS

Assay [3] addresses Mitogen-activated protein kinase kinase kinase kinase 1 (Homo sapiens, UniProt Q92918).
In assay [4] the target is T3, Serine/threonine-protein kinase TAO1 (Homo sapiens, UniProt Q7L7X3).
T3 sequence (Q7L7X3 whole entry): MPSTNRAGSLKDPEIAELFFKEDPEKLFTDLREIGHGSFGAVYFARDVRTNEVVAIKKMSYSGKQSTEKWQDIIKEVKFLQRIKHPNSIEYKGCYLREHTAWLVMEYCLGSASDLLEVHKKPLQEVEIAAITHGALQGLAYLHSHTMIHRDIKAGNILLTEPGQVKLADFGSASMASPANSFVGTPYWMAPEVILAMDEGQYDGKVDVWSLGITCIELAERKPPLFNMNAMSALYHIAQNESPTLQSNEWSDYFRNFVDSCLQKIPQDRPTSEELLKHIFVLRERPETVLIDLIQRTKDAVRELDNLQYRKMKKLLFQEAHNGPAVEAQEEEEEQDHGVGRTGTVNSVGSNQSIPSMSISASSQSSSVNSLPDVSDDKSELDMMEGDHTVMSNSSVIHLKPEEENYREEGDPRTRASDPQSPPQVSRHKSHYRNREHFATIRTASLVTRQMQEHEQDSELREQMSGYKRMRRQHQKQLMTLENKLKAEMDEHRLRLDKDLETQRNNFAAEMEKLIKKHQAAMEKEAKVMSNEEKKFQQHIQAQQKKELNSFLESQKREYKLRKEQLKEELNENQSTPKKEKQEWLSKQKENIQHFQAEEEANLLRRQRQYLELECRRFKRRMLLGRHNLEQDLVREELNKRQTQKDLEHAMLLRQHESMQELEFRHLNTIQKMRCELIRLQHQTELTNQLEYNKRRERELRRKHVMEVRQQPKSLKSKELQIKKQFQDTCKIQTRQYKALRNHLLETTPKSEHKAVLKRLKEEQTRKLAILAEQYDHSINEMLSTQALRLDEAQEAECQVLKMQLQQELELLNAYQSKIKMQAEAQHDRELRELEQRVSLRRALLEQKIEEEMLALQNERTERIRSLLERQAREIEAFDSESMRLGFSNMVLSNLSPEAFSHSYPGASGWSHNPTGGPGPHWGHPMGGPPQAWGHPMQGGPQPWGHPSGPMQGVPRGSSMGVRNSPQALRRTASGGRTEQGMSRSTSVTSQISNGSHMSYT

The target of assay [5] is Serine/threonine-protein kinase B-raf (Homo sapiens, UniProt P15056).
Assay [6] has as its target Mitogen-activated protein kinase kinase kinase 1 (Homo sapiens, UniProt Q13233).
Note: in the data inactive means no Kd found up to 30 µM.

Chain of Activated CDC42 kinase 1 (Q07912 whole entry): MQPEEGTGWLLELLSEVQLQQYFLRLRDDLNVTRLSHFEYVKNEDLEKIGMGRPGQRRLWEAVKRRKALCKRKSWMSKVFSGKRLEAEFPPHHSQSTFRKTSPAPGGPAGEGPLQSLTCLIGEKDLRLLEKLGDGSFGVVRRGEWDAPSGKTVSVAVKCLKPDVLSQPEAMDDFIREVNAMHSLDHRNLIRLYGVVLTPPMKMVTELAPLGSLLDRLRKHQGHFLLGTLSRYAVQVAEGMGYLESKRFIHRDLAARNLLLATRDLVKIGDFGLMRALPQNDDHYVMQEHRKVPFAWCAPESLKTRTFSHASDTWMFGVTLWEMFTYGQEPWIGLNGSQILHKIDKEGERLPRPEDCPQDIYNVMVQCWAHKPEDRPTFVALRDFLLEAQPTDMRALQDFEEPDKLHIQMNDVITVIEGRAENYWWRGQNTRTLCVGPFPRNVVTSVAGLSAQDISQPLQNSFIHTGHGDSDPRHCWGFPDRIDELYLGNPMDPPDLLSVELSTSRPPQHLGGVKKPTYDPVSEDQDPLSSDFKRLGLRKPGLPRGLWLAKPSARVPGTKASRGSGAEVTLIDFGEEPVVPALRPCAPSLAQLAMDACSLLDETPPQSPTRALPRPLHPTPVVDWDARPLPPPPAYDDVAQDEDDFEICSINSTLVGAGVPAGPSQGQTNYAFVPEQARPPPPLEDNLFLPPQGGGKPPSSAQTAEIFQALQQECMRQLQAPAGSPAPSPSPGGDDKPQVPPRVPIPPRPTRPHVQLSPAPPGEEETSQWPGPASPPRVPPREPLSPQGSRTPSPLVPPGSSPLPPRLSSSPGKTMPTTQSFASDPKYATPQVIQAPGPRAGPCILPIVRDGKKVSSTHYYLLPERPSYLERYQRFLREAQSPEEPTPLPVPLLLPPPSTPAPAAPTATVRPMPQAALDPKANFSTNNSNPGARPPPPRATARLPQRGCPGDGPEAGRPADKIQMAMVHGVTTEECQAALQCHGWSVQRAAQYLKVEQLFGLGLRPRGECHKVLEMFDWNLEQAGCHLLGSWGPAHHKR
Chain of Serine/threonine-protein kinase B-raf (P15056 whole entry): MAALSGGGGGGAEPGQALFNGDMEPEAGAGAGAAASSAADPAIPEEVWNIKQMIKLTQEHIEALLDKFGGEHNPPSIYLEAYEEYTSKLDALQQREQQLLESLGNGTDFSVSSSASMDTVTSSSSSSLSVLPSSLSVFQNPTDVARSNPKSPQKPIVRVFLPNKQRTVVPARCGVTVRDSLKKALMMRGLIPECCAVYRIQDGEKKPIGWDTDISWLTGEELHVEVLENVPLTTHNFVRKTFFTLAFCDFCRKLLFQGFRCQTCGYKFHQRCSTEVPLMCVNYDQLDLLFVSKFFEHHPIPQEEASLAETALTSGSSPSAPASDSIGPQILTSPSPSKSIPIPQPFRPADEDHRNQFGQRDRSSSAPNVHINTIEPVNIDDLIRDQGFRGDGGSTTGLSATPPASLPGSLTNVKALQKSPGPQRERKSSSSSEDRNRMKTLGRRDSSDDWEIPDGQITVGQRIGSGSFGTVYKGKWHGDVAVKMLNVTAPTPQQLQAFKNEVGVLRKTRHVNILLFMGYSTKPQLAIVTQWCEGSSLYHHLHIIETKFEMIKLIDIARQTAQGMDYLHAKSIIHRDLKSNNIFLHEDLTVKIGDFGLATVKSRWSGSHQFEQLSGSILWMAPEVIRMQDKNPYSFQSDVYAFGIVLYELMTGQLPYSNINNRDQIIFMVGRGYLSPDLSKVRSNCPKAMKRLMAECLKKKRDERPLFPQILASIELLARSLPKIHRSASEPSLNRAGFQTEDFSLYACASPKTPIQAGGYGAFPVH
Chain of Mitogen-activated protein kinase kinase kinase 1 (Q13233 whole entry): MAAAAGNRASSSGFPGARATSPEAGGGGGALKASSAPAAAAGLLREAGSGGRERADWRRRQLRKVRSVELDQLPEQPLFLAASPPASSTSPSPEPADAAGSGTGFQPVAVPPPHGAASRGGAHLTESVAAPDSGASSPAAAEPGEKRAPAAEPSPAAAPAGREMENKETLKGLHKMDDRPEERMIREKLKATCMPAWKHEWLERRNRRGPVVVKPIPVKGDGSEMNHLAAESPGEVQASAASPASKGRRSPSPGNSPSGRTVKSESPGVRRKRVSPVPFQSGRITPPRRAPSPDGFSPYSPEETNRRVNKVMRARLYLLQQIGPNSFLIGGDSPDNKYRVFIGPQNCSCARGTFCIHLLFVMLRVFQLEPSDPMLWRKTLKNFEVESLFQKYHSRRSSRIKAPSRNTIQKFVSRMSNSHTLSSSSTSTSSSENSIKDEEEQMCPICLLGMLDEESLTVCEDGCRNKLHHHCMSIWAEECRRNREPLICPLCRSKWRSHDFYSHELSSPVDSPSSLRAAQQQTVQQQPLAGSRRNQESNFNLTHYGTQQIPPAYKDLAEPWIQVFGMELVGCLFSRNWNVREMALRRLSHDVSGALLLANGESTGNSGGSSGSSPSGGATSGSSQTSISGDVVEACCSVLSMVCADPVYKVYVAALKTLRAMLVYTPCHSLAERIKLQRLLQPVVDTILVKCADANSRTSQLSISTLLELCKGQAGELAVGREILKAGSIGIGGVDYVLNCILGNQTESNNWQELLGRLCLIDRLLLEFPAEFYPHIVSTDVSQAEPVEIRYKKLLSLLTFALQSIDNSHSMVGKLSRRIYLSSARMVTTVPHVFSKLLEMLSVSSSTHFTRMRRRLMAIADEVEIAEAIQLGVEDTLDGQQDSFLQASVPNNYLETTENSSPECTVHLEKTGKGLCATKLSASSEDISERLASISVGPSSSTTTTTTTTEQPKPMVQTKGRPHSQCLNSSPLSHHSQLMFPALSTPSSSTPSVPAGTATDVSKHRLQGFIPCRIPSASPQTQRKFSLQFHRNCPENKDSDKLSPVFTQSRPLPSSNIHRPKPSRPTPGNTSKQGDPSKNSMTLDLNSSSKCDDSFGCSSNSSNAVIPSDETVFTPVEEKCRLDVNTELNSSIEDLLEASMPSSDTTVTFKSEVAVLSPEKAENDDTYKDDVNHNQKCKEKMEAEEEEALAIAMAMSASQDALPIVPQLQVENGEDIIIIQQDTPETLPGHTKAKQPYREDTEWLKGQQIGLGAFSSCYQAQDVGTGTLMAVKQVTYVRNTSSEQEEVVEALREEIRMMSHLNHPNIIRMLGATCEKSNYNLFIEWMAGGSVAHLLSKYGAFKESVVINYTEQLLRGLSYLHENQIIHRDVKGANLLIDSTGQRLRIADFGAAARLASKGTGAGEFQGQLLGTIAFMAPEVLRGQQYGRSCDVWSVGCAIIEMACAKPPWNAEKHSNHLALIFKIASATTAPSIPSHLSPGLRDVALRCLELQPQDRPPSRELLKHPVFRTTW
Chain of Mitogen-activated protein kinase kinase kinase kinase 1 (Q92918 whole entry): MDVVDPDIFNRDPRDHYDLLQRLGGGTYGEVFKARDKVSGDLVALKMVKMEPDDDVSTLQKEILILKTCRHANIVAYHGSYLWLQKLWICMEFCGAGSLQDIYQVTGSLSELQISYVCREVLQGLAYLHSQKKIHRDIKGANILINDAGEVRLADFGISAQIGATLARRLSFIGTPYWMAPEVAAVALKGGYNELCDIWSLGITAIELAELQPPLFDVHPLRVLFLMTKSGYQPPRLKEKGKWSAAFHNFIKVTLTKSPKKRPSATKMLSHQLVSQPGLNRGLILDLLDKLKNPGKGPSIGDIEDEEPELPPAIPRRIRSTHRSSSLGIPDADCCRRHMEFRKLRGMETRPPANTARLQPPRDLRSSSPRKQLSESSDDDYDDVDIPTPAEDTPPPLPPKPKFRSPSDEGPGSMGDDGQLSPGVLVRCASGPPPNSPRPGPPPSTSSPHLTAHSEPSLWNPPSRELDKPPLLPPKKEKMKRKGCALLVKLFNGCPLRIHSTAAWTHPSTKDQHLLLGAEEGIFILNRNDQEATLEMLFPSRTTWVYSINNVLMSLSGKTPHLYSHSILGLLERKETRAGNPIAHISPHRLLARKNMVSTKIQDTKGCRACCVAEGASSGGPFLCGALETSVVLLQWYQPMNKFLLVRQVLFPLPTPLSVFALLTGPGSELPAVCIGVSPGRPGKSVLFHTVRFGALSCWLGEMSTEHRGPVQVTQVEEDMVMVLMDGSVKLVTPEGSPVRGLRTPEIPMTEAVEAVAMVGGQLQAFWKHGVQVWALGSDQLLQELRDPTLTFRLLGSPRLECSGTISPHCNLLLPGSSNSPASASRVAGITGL

Take `O=C(c1ccc(F)c(F)c1Nc1ccc(I)cc1F)N1CC(O)([C@@H]2CCCCN2)C1` [COBIMETINIB]: the Kd (on Activated CDC42 kinase 1; in assay [1]; in assay [2]; in assay [3]; in assay [4]; in assay [5]) was > 30 µM (inactive) in each case. In assay [6], the Kd was > 30 µM (inactive).
Take `Cc1ccc(S(=O)(=O)Nc2nc3ccccc3nc2Nc2ccc3nsnc3c2)cc1`: the Kd (on Activated CDC42 kinase 1; in assay [1]; in assay [2]; in assay [3]; in assay [4]; in assay [5]) was > 30 µM (inactive) each time. In addition, in assay [6], the Kd was > 30 µM (inactive).
As to `CCS(=O)(=O)N1CC(CC#N)(n2cc(-c3ncnc4[nH]ccc34)cn2)C1` [BARICITINIB], the Kd (at Activated CDC42 kinase 1; in assay [1]; in assay [2]; in assay [3]; in assay [4]; in assay [5]) was > 30 µM (inactive) throughout. The Kd in assay [6] was 1.89 µM (active).
Regarding `Cc1ccc(NC(=O)c2ccc(CN3CC[C@H](N(C)C)C3)c(C(F)(F)F)c2)cc1Nc1nccc(-c2cncnc2)n1` [BAFETINIB], the Kd on Activated CDC42 kinase 1 was > 30 µM (inactive); in assay [1], > 30 µM (inactive); in assay [2] it was > 30 µM (inactive); in assay [3] it was > 30 µM (inactive); in assay [4], > 30 µM (inactive); in assay [5], 1.14 µM (active). Moreover, in assay [6], the Kd is > 30 µM (inactive).
As to `Cc1ccc(-n2nc(C(C)(C)C)cc2NC(=O)NCc2cc(F)ccc2Oc2ccc3c(cnn3CCO)c2)cc1` [PEXMETINIB], the Kd was > 30 µM (inactive) on Activated CDC42 kinase 1; > 30 µM (inactive) in assay [1]; > 30 µM (inactive) in assay [2]; > 30 µM (inactive) in assay [3]; > 30 µM (inactive) in assay [4]; 5.23 µM (active) in assay [5]. For the same compound, in assay [6], the Kd is > 30 µM (inactive).
`COc1ccc(-c2ccc3c(N4CCOC[C@@H]4C)nc(N4CCOC[C@@H]4C)nc3n2)cc1CO` [AZD-8055]: the Kd (at Activated CDC42 kinase 1; in assay [1]; in assay [2]; in assay [3]; in assay [4]; in assay [5]) was > 30 µM (inactive) throughout. Also, the Kd in assay [6] was > 30 µM (inactive).
Take `C1=C/COCc2cc(ccc2OCCN2CCCC2)Nc2nccc(n2)-c2cccc(c2)COC/1` [PACRITINIB]: the Kd at Activated CDC42 kinase 1 is 9.33 µM (active); in assay [1], > 30 µM (inactive); in assay [2], > 30 µM (inactive); in assay [3] it was 0.16 µM; in assay [4], 2.19 µM (active); in assay [5], > 30 µM (inactive). In assay [6], the Kd is > 30 µM (inactive).
For the compound `O=C(O)[C@]1(Cc2cccc(Nc3nccs3)n2)CC[C@@H](Oc2cccc(Cl)c2F)CC1` [MK-5108], the Kd at Activated CDC42 kinase 1 was 0.473 µM (active); in assay [1] it was > 30 µM (inactive); in assay [2], > 30 µM (inactive); in assay [3] it was > 30 µM (inactive); in assay [4], > 30 µM (inactive); in assay [5], > 30 µM (inactive). For the same compound, the Kd in assay [6] was > 30 µM (inactive).
Turning to `COc1cc(N2CCC(N3CCN(C)CC3)CC2)ccc1Nc1ncnc(Nc2ccccc2S(=O)(=O)C(C)C)n1` [ASP-3026], the Kd at Activated CDC42 kinase 1 was 0.005 µM (active); in assay [1] it was > 30 µM (inactive); in assay [2], > 30 µM (inactive); in assay [3], > 30 µM (inactive); in assay [4], > 30 µM (inactive); in assay [5], > 30 µM (inactive). The Kd in assay [6] is > 30 µM (inactive).
For the compound `CN1CCC(CNc2ccc3ncc(-c4cccc(OC(F)(F)F)c4)n3n2)CC1` [SGI-1776], the Kd (at Activated CDC42 kinase 1; in assay [1]; in assay [2]; in assay [3]; in assay [4]; in assay [5]) was > 30 µM (inactive) in each case. For the same compound, in assay [6], the Kd is > 30 µM (inactive).
